Structures can show the parent of a compound that is named as a salt. Where two headings read alike, the source gives them in different places.
Key:
[1] = molecular target: T1, SARS-CoV-2 PLpro (nsp3 1564–1878) (Severe acute respiratory syndrome coronavirus 2, UniProt P0DTD1); assay: biochemical; parameters: FRET-quenched peptide (Pro3) cleavage by PLpro, 10 min pre-incubation, slope over 20 min, normalised to no-compound control; conditions: low concentration screen, read-out: % of control remaining
[2] = molecular target: T1, SARS-CoV-2 PLpro (nsp3 1564–1878); assay: biochemical; parameters: FRET-quenched peptide (Pro3) cleavage by PLpro, 10 min pre-incubation, slope over 20 min, normalised to no-compound control; conditions: high concentration screen, read-out: % of control remaining

Question: `COc1cc(OCc2cccc(-c3ccccc3)c2C)cc(OC)c1CN1CCCC[C@H]1C(=O)O` [BMS-1] was tested. Which remaining activity at 1.25 µM ([1]; Well no.=7780) did it give?
Answer: Its remaining activity at 1.25 µM is 98.8%.

Question: What about the remaining activity at 1.25 µM ([1]; Well no.=8163) of the same compound?
Answer: The remaining activity at 1.25 µM was 105%.

Question: What about the remaining activity at 3.75 µM ([2]; Well no.=7780) of the same compound?
Answer: The remaining activity at 3.75 µM was 96.2%.

Question: And the remaining activity at 3.75 µM ([2]; Well no.=8163)?
Answer: The remaining activity at 3.75 µM was 100%.

Question: Which remaining activity at 1.25 µM ([1]; Well no.=8414) does the source give for `O=C1c2cc([N+](=O)[O-])ccc2-n2c1nc1ccccc1c2=O` [GNF-PF-3777] here?
Answer: The remaining activity at 1.25 µM was 88.1%.

Question: And the remaining activity at 1.25 µM ([1]; Well no.=8695)?
Answer: Its remaining activity at 1.25 µM is 103%.

Question: And the remaining activity at 3.75 µM ([2]; Well no.=8414)?
Answer: Its remaining activity at 3.75 µM is 78.5%.

Question: What about the remaining activity at 3.75 µM ([2]; Well no.=8695) of the same compound?
Answer: Its remaining activity at 3.75 µM is 99%.

Question: What does the source list for `CC(C)(C)c1cc(/C=C(\C#N)C(N)=S)cc(C(C)(C)C)c1O` [Tyrphostin AG 879]?
Answer: remaining activity at 1.25 µM ([1]; Well no.=1427): 95.8%; remaining activity at 3.75 µM ([2]; Well no.=1427): 85.7%

Question: How did the remaining activity at 1.25 µM ([1]; Well no.=929) turn out when `CCn1cc(C(=O)O)c(=O)c2cc(F)c(N3CCNC(C)C3)c(F)c21` (stereo not drawn) [Lomefloxacin hydrochloride] was run?
Answer: The remaining activity at 1.25 µM was 98.7%.

Question: What about the remaining activity at 3.75 µM ([2]; Well no.=929) of the same compound?
Answer: Its remaining activity at 3.75 µM is 94.8%.

Question: With `CC(=O)N(C(C)=O)c1ccc(N=Nc2ccccc2C)cc1C` [Diacetazotol] as the compound, how does the remaining activity at 1.25 µM ([1]; Well no.=7840) read?
Answer: Its remaining activity at 1.25 µM is 98.8%.

Question: What about the remaining activity at 3.75 µM ([2]; Well no.=7840) of the same compound?
Answer: Its remaining activity at 3.75 µM is 97.2%.

Question: For `COc1cc2c(cc1O)C[C@H]1c3c(cc(O)c(OC)c3-2)CCN1C` [Boldine], which remaining activity at 1.25 µM ([1]; Well no.=3166) is on record?
Answer: Its remaining activity at 1.25 µM is 102%.

Question: What about the remaining activity at 3.75 µM ([2]; Well no.=3166) of the same compound?
Answer: Its remaining activity at 3.75 µM is 101%.

Question: What does the source list for `OCc1ccc(-c2nn(Cc3ccccc3)c3ccccc23)o1` [Lificiguat]?
Answer: remaining activity at 1.25 µM ([1]; Well no.=7713): 99%; remaining activity at 3.75 µM ([2]; Well no.=7713): 82.8%

Question: For `C[C@@H]1O[C@@H](O[C@H]2C[C@@H](O)[C@]3(CO)[C@H]4[C@H](O)C[C@]5(C)[C@@H](C6COC(=O)C6)CC[C@]5(O)[C@@H]4CC[C@]3(O)C2)[C@H](O)[C@H](O)[C@H]1O` (stereo partly drawn) [Dihydroouabain], which remaining activity at 1.25 µM ([1]; Well no.=539) is on record?
Answer: The remaining activity at 1.25 µM was 91.5%.

Question: And the remaining activity at 3.75 µM ([2]; Well no.=539)?
Answer: The remaining activity at 3.75 µM was 93.8%.

Question: For `CC(N)=NCCCCC(N)C(=O)O` (stereo in doubt) [L-N6-(1-Iminoethyl)lysine hydrochloride], which remaining activity at 1.25 µM ([1]; Well no.=871) is on record?
Answer: Its remaining activity at 1.25 µM is 107%.

Question: And the remaining activity at 3.75 µM ([2]; Well no.=871)?
Answer: The remaining activity at 3.75 µM was 102%.

Question: `O=c1cc(N2CCOCC2)oc2c(-c3cccc4c3sc3ccccc34)cccc12` [NU7441 (KU-57788)] was tested. Which remaining activity at 1.25 µM ([1]; Well no.=4926) did it give?
Answer: Its remaining activity at 1.25 µM is 99.2%.

Question: What about the remaining activity at 3.75 µM ([2]; Well no.=4926) of the same compound?
Answer: The remaining activity at 3.75 µM was 94.3%.

Question: Which results are given for `O=C1Cc2cc(CCN3CCN(c4nsc5ccccc45)CC3)c(Cl)cc2N1` [Ziprasidone (hydrochloride monohydrate)]?
Answer: remaining activity at 1.25 µM ([1]; Well no.=6563): 92.6%; remaining activity at 3.75 µM ([2]; Well no.=6563): 90.8%

Question: `CC(=O)O[C@H]1CC[C@@]2(C)C(=CC[C@@H]3[C@@H]2CC[C@]2(C)C(c4cccnc4)=CC[C@@H]32)C1` [Abiraterone Acetate (CB7630)] was tested. Which remaining activity at 1.25 µM ([1]; Well no.=5274) did it give?
Answer: The remaining activity at 1.25 µM was 88.4%.

Question: What about the remaining activity at 3.75 µM ([2]; Well no.=5274) of the same compound?
Answer: Its remaining activity at 3.75 µM is 79.5%.

Question: What does the source list for `CO[C@H](C(=O)[C@@H](O)[C@@H](C)O)[C@@H]1Cc2cc3cc(O[C@H]4C[C@@H](O[C@@H]5C[C@@H](O)[C@H](O)[C@@H](C)O5)[C@H](O)[C@@H](C)O4)c(C)c(O)c3c(O)c2C(=O)[C@H]1O[C@H]1C[C@@H](O[C@@H]2C[C@@H](O)[C@@H](O[C@@H]3C[C@](C)(O)[C@H](O)[C@@H](C)O3)[C@@H](C)O2)[C@H](O)[C@@H](C)O1` [Plicamycin]?
Answer: remaining activity at 1.25 µM ([1]; Well no.=1666): 107%; remaining activity at 3.75 µM ([2]; Well no.=1666): 106%

Question: `C/C1=C\CC(C)(C)/C=C/C(=O)/C(C)=C/CC1` [Zerumbone] was tested. Which remaining activity at 1.25 µM ([1]; Well no.=3549) did it give?
Answer: Its remaining activity at 1.25 µM is 96.6%.

Question: What about the remaining activity at 3.75 µM ([2]; Well no.=3549) of the same compound?
Answer: Its remaining activity at 3.75 µM is 98.6%.

Question: Which results are given for `Clc1ccc(C(Cn2ccnc2)OCc2ccc(Sc3ccccc3)cc2)c(Cl)c1` (stereo not drawn) [Fenticonazole nitrate]?
Answer: remaining activity at 1.25 µM ([1]; Well no.=5044): 96.2%; remaining activity at 3.75 µM ([2]; Well no.=5044): 95.9%

Question: For `O=c1ccn([C@@H]2O[C@H](CO)[C@@H](O)[C@H]2O)c(=O)[nH]1` [Uridine], which remaining activity at 1.25 µM ([1]; Well no.=4716) is on record?
Answer: Its remaining activity at 1.25 µM is 103%.

Question: And the remaining activity at 3.75 µM ([2]; Well no.=4716)?
Answer: The remaining activity at 3.75 µM was 104%.

Question: Which results are given for `Cc1nnc2ccc(-c3cccc(C(F)(F)F)c3)nn12` [3-Methyl-6-(3-[trifluoromethyl]phenyl)-1,2,4-triazolo[4,3-b]pyridazine]?
Answer: remaining activity at 1.25 µM ([1]; Well no.=828): 106%; remaining activity at 3.75 µM ([2]; Well no.=828): 105%

Question: What does the source list for `CNC(=O)[C@H]1O[C@@H](n2cnc3c(NCc4cccc(I)c4)nc(Cl)nc32)[C@H](O)[C@@H]1O` [Namodenoson]?
Answer: remaining activity at 1.25 µM ([1]; Well no.=8451): 104%; remaining activity at 3.75 µM ([2]; Well no.=8451): 104%

Question: Which results are given for `CO/N=C(\C(=O)N[C@@H]1C(=O)N2C(C(=O)[O-])=C(C[N+]3(C)CCCC3)CS[C@H]12)c1csc(N)n1` [Cefepime]?
Answer: remaining activity at 1.25 µM ([1]; Well no.=1842): 90%; remaining activity at 3.75 µM ([2]; Well no.=1842): 88.2%
